Measurements published in patent US10519162B2, “6,7-dihydropyrazolo[1,5-α]pyrazin-4(5H)-one compounds and their use as negative allosteric modulators of mGluR2 receptors” (Janssen Pharmaceutica NV, priority 2014, dated 2019).

Experiments:
human mGlu2 receptor = target: T1, human mGlu2 receptor (Homo sapiens, UniProt Q14416); assay: [35S]GTPγS binding assay (mGluR2 negative allosteric modulation, glutamate ~EC80 60 μM); type: biochemical; conditions: for IC50: membranes from CHO cells transfected with human mGlu2 receptor, glutamate ~EC80 (60 μM), pIC50 = −log IC50 (M), read-out: GTPγS-hmGluR2 anGT pIC50 (converted); for Emax: read-out: GTPγS-hmGluR2 anGT Emax
T1 construct: expressed in transfected cells; host or cells: CHO cells
T1 sequence (Q14416 19-872): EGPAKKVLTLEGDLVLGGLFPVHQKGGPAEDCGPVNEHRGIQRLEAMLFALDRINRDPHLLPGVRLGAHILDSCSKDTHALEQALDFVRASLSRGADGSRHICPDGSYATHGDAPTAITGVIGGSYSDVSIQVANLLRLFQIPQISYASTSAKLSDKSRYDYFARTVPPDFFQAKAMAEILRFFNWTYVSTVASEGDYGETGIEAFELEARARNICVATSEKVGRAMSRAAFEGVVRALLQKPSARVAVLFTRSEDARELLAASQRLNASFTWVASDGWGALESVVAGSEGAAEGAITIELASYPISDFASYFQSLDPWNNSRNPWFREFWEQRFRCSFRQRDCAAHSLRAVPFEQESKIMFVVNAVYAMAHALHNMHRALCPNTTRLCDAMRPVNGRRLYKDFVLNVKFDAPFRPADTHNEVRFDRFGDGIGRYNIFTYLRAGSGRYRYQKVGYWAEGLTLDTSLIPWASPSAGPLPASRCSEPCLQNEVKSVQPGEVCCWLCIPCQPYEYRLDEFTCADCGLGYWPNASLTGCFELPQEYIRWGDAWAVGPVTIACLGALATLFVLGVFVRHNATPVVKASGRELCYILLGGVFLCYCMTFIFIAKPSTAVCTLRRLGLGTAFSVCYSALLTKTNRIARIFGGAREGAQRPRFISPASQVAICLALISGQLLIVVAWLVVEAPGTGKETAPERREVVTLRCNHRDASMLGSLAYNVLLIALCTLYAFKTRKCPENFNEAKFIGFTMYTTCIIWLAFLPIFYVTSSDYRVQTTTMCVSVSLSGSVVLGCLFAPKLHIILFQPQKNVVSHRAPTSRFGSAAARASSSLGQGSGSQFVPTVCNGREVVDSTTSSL
Description: 1) [^35S]GTPγS Binding Assay
[^35S]GTPγS Binding Assay
Total reaction volume was 200 μl. […] Membrane-bound radioactivity was counted in a Topcount.

[1] = maximal % inhibition relative to the control glutamate response (EC80 glutamate)

| Structure (SMILES) | melting point [°C] | GTPγS-hmGluR2 anGT Emax (human mGlu2 receptor; [1]) [%] | IC50 (human mGlu2 receptor) [M] | Emax (human mGlu2 receptor; [1]) [%] |
| --- | --- | --- | --- | --- |
| Cc1cc(C(=O)Nc2cnn3c2C(=O)N(c2ccc(C(F)(F)F)cc2)C[C@@H]3C)cc(CF)n1 (racemic) [Co. No. 209] | 157.37 |  |  |  |
| COCC1CN(c2ccc(C(F)(F)F)cc2)C(=O)c2c(NC(=O)c3ccccc3F)cnn21 (single isomer, unassigned) [Co. No. 62b] | 162.51 | 66 | 4.79e-06 |  |
| COCC1CN(c2ccc(C(F)(F)F)cc2)C(=O)c2c(NC(=O)c3ccc(N)nc3)cnn21 (single isomer, unassigned) [Co. No. 96] | 225.83 |  | 1.45e-06 | 95 |
| C[C@H]1CN(c2ccc(C(F)(F)F)c(CF)c2)C(=O)c2c(NC(=O)c3ccc(N)nc3)cnn21 [Co. No. 5, 6-Amino-N-[(7S)-5-[3-(fluoromethyl)-4-(trifluoromethyl)phenyl]-7-methyl-4-oxo-6,7-dihydropyrazolo[1,5-a]pyrazin-3-yl]pyridine-3-carboxamide] |  |  | 2.4e-09 | 107 |
| Cc1cc(N2C[C@H](C)n3ncc(NC(=O)c4ccccc4)c3C2=O)ccc1C(F)(F)F [Co. No. 7] | 154.53 |  | 2.29e-09 | 108 |
| Cc1cccc(C(=O)Nc2cnn3c2C(=O)N(c2ccc(C(F)(F)F)cc2)C[C@@H]3C)c1 [Co. No. 9] | 147.4 |  | 2.45e-09 | 106 |
| COc1ccc(F)cc1C(=O)Nc1cnn2c1C(=O)N(c1ccc(C(F)(F)F)cc1)C[C@@H]2C [Co. No. 10] | 204.35 |  | 2.57e-09 | 113 |
| COc1cc(F)cc(C(=O)Nc2cnn3c2C(=O)N(c2ccc(C(F)(F)F)cc2)C[C@@H]3C)c1 [Co. No. 17] | 136.53 |  | 3.72e-09 | 114 |
| COc1c(F)cccc1C(=O)Nc1cnn2c1C(=O)N(c1ccc(C(F)(F)F)cc1)C[C@@H]2C [Co. No. 19] | 170.98 |  | 4.37e-09 | 117 |
| COc1cccc(C(=O)Nc2cnn3c2C(=O)N(c2ccc(C(F)(F)F)cc2)C[C@@H]3C)n1 [Co. No. 21] | 199.24 |  | 4.68e-09 | 106 |
| COc1ccc(C(=O)Nc2cnn3c2C(=O)N(c2ccc(C(F)(F)F)cc2)C[C@@H]3C)cc1F [Co. No. 23] | 152.43 |  | 5.5e-09 | 105 |
| C[C@H]1CN(c2ccc(C(F)(F)F)cc2)C(=O)c2c(NC(=O)c3ccccn3)cnn21 [Co. No. 24] |  |  | 5.89e-09 | 102 |
| COc1ccc(C(=O)Nc2cnn3c2C(=O)N(c2ccc(C(F)(F)F)cc2)C[C@@H]3C)cc1 [Co. No. 25] | 164.82 |  | 6.17e-09 | 104 |
| COc1cccc(F)c1C(=O)Nc1cnn2c1C(=O)N(c1ccc(C(F)(F)F)cc1)C[C@@H]2C [Co. No. 41] |  |  | 1.05e-08 | 109 |
| COc1nc(N2C[C@H](C)n3ncc(NC(=O)c4ccc(N)nc4)c3C2=O)ccc1Cl [Co. No. 65] |  |  | 2.69e-08 | 111 |
| C[C@H]1CN(c2ccc(C(F)(F)F)cc2)C(=O)c2c(NC(=O)c3ncccc3F)cnn21 [Co. No. 67] |  |  | 2.82e-08 | 102 |
| C[C@H]1CN(c2ccc(C(F)(F)F)cc2)C(=O)c2c(NC(=O)c3ccno3)cnn21 [Co. No. 69] |  |  | 2.95e-08 | 103 |
| C[C@H]1CN(c2ccc(C(F)(F)F)cc2)C(=O)c2c(NC(=O)c3cc(N)[nH]n3)cnn21 [Co. No. 84, 5-Amino-N-[(7S)-7-methyl-4-oxo-5-[4-(trifluoromethyl)phenyl]-6,7-dihydropyrazolo[1,5-a]pyrazin-3-yl]-1H-pyrazole-3-carboxamide] |  |  | 1.38e-07 | 109 |

| Structure (SMILES) | melting point [°C] | GTPγS-hmGluR2 anGT Emax (human mGlu2 receptor; [1]) [%] | IC50 (human mGlu2 receptor) [M] | Emax (human mGlu2 receptor; [1]) [%] |
| --- | --- | --- | --- | --- |
| C[C@H]1CN(c2ccc(C(F)(F)F)cc2)C(=O)c2c(NC(=O)c3ccc(N)nn3)cnn21 [Co. No. 90] |  |  | 2.88e-07 | 97 |
| C[C@H]1CN(c2ccc(C(F)(F)F)cc2)C(=O)c2c(NC(=O)c3ccc(O)nn3)cnn21 [Co. No. 92] |  |  | 1.26e-06 | 101 |
| C[C@H]1CN(c2ccc(C(F)(F)F)cc2)C(=O)c2c(NC(=O)c3ncccn3)cnn21 [Co. No. 98] |  |  | 1.51e-07 | 106 |
| Cc1cncc(C(=O)Nc2cnn3c2C(=O)N(c2ccc(Cl)cc2)C[C@@H]3C)c1 [Co. No. 131] |  |  | 1.66e-08 | 107 |
| Cc1cc(C(=O)Nc2cnn3c2C(=O)N(c2ccc(Cl)cc2)C[C@@H]3C)cc(C)n1 [Co. No. 132] |  |  | 8.71e-09 | 112 |
| COCC1CN(c2ccc(C(F)(F)F)c(Cl)c2)C(=O)c2c(NC(=O)c3ccc(N)nc3)cnn21 (centres unmarked) [Co. No. 140] | 230.27 |  |  |  |
| COCC1CN(c2ccc(C(F)(F)F)c(Cl)c2)C(=O)c2c(NC(=O)c3ccc(N)nc3)cnn21 (centres unmarked) [Co. No. 141] | 230.4 |  |  |  |
| Cc1nccc(C(=O)Nc2cnn3c2C(=O)N(c2ccc(C(F)(F)F)cc2)C[C@@H]3C)c1C [Co. No. 154] |  |  | 6.03e-08 | 105 |
| Cc1nccc(C(=O)Nc2cnn3c2C(=O)N(c2ccc(C(F)(F)F)c(Cl)c2)C[C@@H]3C)c1C [Co. No. 155] |  |  | 5.5e-09 | 104 |
| Cc1cc(C(=O)Nc2cnn3c2C(=O)N(c2ccc(C(F)(F)F)cc2)C[C@@H]3C)c(C)cn1 [Co. No. 157] |  |  | 1.86e-08 | 106 |
| C[C@H]1CN(c2ccc(C(F)(F)F)c(CO)c2)C(=O)c2c(NC(=O)c3ccc(N)nc3)cnn21 [Co. No. 165] | 238.83 |  |  |  |
| Cc1cnc(NC(C)(C)C)c(C(=O)Nc2cnn3c2C(=O)N(c2ccc(C(F)(F)F)c(Cl)c2)C[C@@H]3C)c1 [Co. No. 167, 2-(tert-Butylamino)-N-[(7S)-5-[3-chloro-4-(trifluoromethyl)phenyl]-7-methyl-4-oxo-6,7-dihydropyrazolo[1,5-a]pyrazin-3-yl]-5-methyl-pyridine-3-carboxamide] |  |  | 2.82e-07 | 103 |
| Cc1cc(C(=O)Nc2cnn3c2C(=O)N(c2ccc(C(F)(F)F)c(Cl)c2)C[C@@H]3C)cnc1NC(C)(C)C [Co. No. 168, 6-(tert-butylamino)-N-[(7S)-5-[3-chloro-4-(trifluoromethyl)phenyl]-7-methyl-4-oxo-6,7-dihydropyrazolo[1,5-a]pyrazin-3-yl]-5-methyl-pyridine-3-carboxamide] |  |  | 2.88e-08 | 105 |
| Cc1cc(C(=O)Nc2cnn3c2C(=O)N(c2ccc(C(F)(F)F)c(Cl)c2)C[C@@H]3C)cnc1N [Co. No. 169, 6-Amino-N-[(7S)-5-[3-chloro-4-(trifluoromethyl)phenyl]-7-methyl-4-oxo-6,7-dihydropyrazolo[1,5-a]pyrazin-3-yl]-5-methyl-pyridine-3-carboxamide] |  |  | 5.89e-10 | 108 |
| C[C@H]1CN(c2ccc(Cl)c(Cl)c2)C(=O)c2c(NC(=O)C(F)(F)F)cnn21 [Co. No. 173, N-[(7S)-5-(3,4-Dichlorophenyl)-7-methyl-4-oxo-6,7-dihydropyrazolo[1,5-a]pyrazin-3-yl]-2,2,2-trifluoro-acetamide] |  |  | 2.29e-08 | 104 |
| Cc1cnc(N)c(C(=O)Nc2cnn3c2C(=O)N(c2ccc(SC(F)(F)F)cc2)C[C@@H]3C)c1 [Co. No. 207] | 172.9 |  |  |  |
| Cc1cc(N2C[C@H](C)n3ncc(NC(=O)c4cccnc4N)c3C2=O)ccc1Cl [Co. No. 208] | 174.32 |  |  |  |
